Data as given in US8674136B2, “Aromatic butan-2-ol compounds and preparation and uses thereof” (Institute of Pharmacology and Toxicology Academy of …, priority 2010, dated 2014).
Values after ≈ are worked out from the molar mass of the structure shown.

Legend:
[1] = test system: clinical drug-resistant strain 004 of mycobacterium tuberculosis; experiment: microbe, parasite or virus in culture; format: cell-based; conditions: read-out: MIC, M.tb stains (drug-resistant strains) 004
[2] = test system: clinical drug-resistant strain 040 of mycobacterium tuberculosis; experiment: microbe, parasite or virus in culture; format: cell-based; conditions: read-out: MIC, M.tb stains (drug-resistant strains) 40

Row | Structure (SMILES) | MIC [1] [µg/mL] | MIC [2] [µg/mL]
1 | COc1cc2ccc(Br)cc2cc1C(c1cccc(C)c1)C(O)(CCN(C)C)c1cccc2ccccc12 (stereo not shown) [Compound 37, 1-(3-methylphenyl)-2-(1-naphthyl)-1-[2-(7-bromo-3-methoxy)naphthyl]-4-(N,N-dimethylamino)-butan-2-ol] | 0.5 (≈ 0.879 µM) | 0.125 (≈ 0.22 µM)
2 | COc1cc2ccc(Br)cc2cc1C(c1cccc(Cl)c1)C(O)(CCN(C)C)c1cccc2ccccc12 (stereo not shown) [Compound 35, 1-(3-chlorophenyl)-2-(1-naphthyl)-1-[2-(7-bromo-3-methoxy)naphthyl]-4-(N,N-dimethylamino)-butan-2-ol] | 0.5 (≈ 0.849 µM) | 0.125 (≈ 0.212 µM)
